{
  "source": "patent US8153593B2",
  "about": "“Transglutaminase inhibitors and methods of use thereof” (The Board of Trustees of the Leland Stanford Junior …, priority 2003, dated 2012)",
  "key": {"[1]": {"test": "Preliminary pharmacokinetic and toxicity studies", "details": "mice"}, "[2]": {"system": "subcutaneous murine DBT glioblastoma tumors", "test": "Subcutaneous DBT glioblastoma tumor study with BCNU", "details": "in vivo, combination with BCNU"}, "[3]": {"molecular_target": "T1, small intestine mucosal TG2 (Mus musculus, UniProt P21981)", "T1 construct": "from tissue; host or cells: mouse small intestinal mucosa", "T1 sequence (P21981 1-686)": "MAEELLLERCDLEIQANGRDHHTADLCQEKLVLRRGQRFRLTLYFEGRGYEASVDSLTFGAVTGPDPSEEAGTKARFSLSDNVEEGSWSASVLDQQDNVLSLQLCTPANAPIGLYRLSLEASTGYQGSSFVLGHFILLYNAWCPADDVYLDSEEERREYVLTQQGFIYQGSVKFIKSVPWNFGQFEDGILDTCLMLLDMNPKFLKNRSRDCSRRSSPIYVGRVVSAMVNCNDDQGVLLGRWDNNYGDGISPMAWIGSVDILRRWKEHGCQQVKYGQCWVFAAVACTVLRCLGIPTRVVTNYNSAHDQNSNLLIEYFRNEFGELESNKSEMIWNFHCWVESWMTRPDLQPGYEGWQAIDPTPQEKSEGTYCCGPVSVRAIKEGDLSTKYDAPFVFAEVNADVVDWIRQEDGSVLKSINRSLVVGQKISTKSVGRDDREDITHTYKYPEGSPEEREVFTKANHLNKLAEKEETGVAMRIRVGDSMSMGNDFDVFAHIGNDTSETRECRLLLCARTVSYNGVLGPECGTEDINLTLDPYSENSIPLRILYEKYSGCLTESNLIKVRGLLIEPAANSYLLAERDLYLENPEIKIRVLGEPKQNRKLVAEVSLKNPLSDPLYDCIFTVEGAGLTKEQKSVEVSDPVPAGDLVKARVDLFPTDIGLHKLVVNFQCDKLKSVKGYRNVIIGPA", "test": "Small intestine mucosal TG2 activity after intra-peritoneal dosing", "type": "in vivo, mice", "experimental": "FIG. 7: Time dependent inhibition of small intestine mucosal TG2 in mice dosed intra-peritoneally with 60 mg/kg KCC009. Mice were sacrificed at different times, intestinal mucosa were harvested and assayed for TG2 activity.\nDue to the absence of an appropriate animal model for Celiac Sprue, the therapeutic benefit of TG2 inhibitors for this disease can only be validated in patients. Our goal is therefore to identify a safe, oral TG2 inhibitor that can block mucosal TG2 activity in the upper small intestine of Celiac Sprue patients. Such an agent could be used in the context of a short (2 week) blinded crossover trial in Celiac Sprue patients to determine if TG2 inhibition protects a Celiac Sprue patient from gluten-induced malabsorption. From available data, KCC009 may be precisely such a compound. […] To test whether orally administered KCC009 can inhibit jejunal TG2 activity, adult male rats were dosed with 35 mg/kg KCC009 in a kneaded gluten vehicle. Animals were sacrificed 1 h after administration of either vehicle-gluten (n=3) or drug-gluten (n=4), and jejunal mucosa was harvested. In vehicle treated animals, jejunal TG2 activity was 21±7 pmol/min/mg protein, whereas in KCC009 treated rats TG2 activity of 5.5±3 pmol/min/mg protein was observed. Thus, a suitable oral formulation may therefore enable local delivery of KCC009 to intestinal mucosa."}, "[4]": {"molecular_target": "T2, tumor associated TG2 (Mus musculus, UniProt P21981)", "T2 construct": "from tissue; host or cells: intracranial DBT glioblastoma tumours from dosed mice", "T2 sequence (P21981 1-686)": "T1 sequence (P21981 1-686)", "test": "Intracranial DBT tumor associated TG2 activity after dosing", "type": "in vivo, mice", "experimental": "To test whether therapeutic doses of KCC009 can modulate TG2 activity associated with intracranial glioblastomas, DBT tumors were injected intracranially in mice. As judged by MRI, the mice consistently established intracranial tumors after 7-10 days following injections, which, if untreated, caused death by 2-3 weeks. In an initial dose-finding experiment, cohorts of mice were administered 4 daily doses of vehicle or KCC009 (12.5 mg/kg, 25 mg/kg and 50 mg/kg) starting on day 11 after intra-cranial injections. Twenty-four hours later, the mice were sacrificed and tumors analyzed. […] Based on these findings a dose of 35 mg/kg was used for subsequent experiments in mice harboring intracranial DBT tumors.\nAs summarized in Table 4, KCC009 treatment led to significant suppression of TG2 activity after 15 min, whereas enzyme activity recovers fully by 24 h. Both uninhibited and inhibited activity levels are consistent with similar measurements in the small intestinal mucosa (data not shown)."}, "[5]": {"system": "B16 mouse melanoma cells", "test": "Melanoma cell treatment with KCC009 and/or BCNU", "type": "cell-based", "details": "24 h, 1 mM KCC009 alone or with 6.25 μM BCNU", "experimental": "FIG. 6A-6D: Photomicrographs of B16 (mouse melanoma cells) after 24 h treatment with KCC009 and/or BCNU. A) Control; B) 1 mM KCC009 only; C) 6.25 μM BCNU only; D) KCC009+BCNU combination.\nActivity of KCC009 against melanomas: Melanomas are cancers of the neural crest-derived cells that provide pigmentation to skin and other tissues. No current treatments substantially enhance patient survival once metastasis has occurred."}, "[6]": {"system": "IOMM-Lee meningioma cells", "test": "Meningioma cell sensitization to radiation, TG2-fibronectin Western blot", "type": "cell-based", "details": "0.5 mM KCC009", "experimental": "FIG. 4: Top left: control IOMM meningioma cells; Top right: IOMM cells exposed to 20 Gy radiation; Bottom left: IOMM cells exposed to 0.5 mM KCC009 and 20 Gy radiation.\nFIG. 5: Western blot analysis of lysates from IOMM cells treated with KCC009 and/or BCNU. Lysates were immunoprecipitated with anti-fibronectin antibodies, and the Western blots were probed with anti-TG2 antibodies. Lanes (left to right): Control, KCC009 only, BCNU only, KCC009+BCNU. KCC009 and BCNU were used at concentrations of 0.5 mM and 6.25 μM, respectively. Disappearance of TG2 from lanes treated with KCC009 illustrates loss of association of TG2 with the extracellular matrix.\nTo verify the therapeutic utility of KCC009 against meningiomas, IOMM-Lee meningioma cells were treated with 20 Gy of radiation with and without KCC009. […] Similar data was also obtained when KCC009 was used in combination with BCNU."}},
  "data": [
    {"smiles": "O=C(N[C@@H](Cc1ccc(O)cc1)C(=O)NCC1CC(Br)=NO1)OCc1ccccc1", "note": "(stereo partly drawn) [Compound 59]", "values": [
      {"measurement": "oral bioavailability", "setting": "[1]", "result": "reasonable oral bioavailability"},
      {"measurement": "serum half-life", "setting": "[1]", "result": "short"},
      {"measurement": "toxicity", "setting": "[1]", "result": "low toxicity"},
      {"measurement": "synergism with BCNU", "setting": "[2]", "result": "excellent synergism"},
      {"measurement": "time to complete recovery of TG2 activity", "setting": "[3]; 60 mg/kg intra-peritoneal", "result": "≤ 8", "unit": "h"},
      {"measurement": "inhibition of TG2 activity", "setting": "[3]; 60 mg/kg intra-peritoneal, short timescale (˜1 h)", "result": "strong inhibition of TG2 activity"},
      {"measurement": "TG2 inhibition in small intestinal tissue", "setting": "[3]; mice, preliminary pharmacodynamic study", "result": "efficient TG2 inhibition"},
      {"measurement": "TG2 activity-BCNU + KCC009", "setting": "[4]; BCNU + 50 mg/kg KCC009, 15 min after last of four daily doses", "result": "1.2 ± 0.3 (n = 4) nmol/h/mg protein"},
      {"measurement": "TG2 activity-BCNU + KCC009", "setting": "[4]; BCNU + 50 mg/kg KCC009, 24 h after last of four daily doses", "result": "2.1 ± 0.2 (n = 3) nmol/h/mg protein"},
      {"measurement": "sensitivity of melanoma cells", "setting": "[5]", "result": "sensitive"},
      {"measurement": "sensitization to radiation", "setting": "[6]; 20 Gy radiation", "result": "dramatically sensitized meningioma cells to radiation"},
      {"measurement": "association between TG2 and fibronectin", "setting": "[6]; fibronectin immunoprecipitate, anti-TG2 Western blot", "result": "loss of association between TG2 and fibronectin"}
    ]}
  ]
}
